From ChEMBL document CHEMBL5442175, “EUbOPEN Chemogenomics Library - PDSP Secondary Binding” (2024)
Counter-ions that a name gives are not always drawn.

What was measured:
[1] = biological target: 5-hydroxytryptamine receptor 6 (Homo sapiens, UniProt P50406); assay: (§1) PDSP Secondary Binding target: HTR6 - Compounds are tested at 10 uM concentration, plate are incubated at room temperature in the dark for 90 minutes. Reaction are stopped by vacuum filtration onto 0.3% polyethyleneimine soaked filter mats using Filtermate harvester. Scintillation cocktail is then melted onto microwave-dried filters on a hot plate and the radio activity is counted in Microbia counter.
5-hydroxytryptamine receptor 6, sequence (P50406 whole entry): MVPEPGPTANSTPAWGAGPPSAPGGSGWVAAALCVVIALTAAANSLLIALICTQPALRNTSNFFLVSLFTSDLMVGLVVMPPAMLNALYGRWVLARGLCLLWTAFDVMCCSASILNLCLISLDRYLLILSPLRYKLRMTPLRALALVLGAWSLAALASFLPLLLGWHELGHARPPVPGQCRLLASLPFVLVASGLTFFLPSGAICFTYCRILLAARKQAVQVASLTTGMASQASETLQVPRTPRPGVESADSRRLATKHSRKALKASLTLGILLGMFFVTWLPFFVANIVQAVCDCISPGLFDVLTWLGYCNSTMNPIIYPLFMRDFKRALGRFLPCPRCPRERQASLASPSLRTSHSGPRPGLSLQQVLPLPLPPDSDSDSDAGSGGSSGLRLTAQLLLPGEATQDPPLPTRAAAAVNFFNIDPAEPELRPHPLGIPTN

[2] = biological target: T1, 5-hydroxytryptamine receptor 2C (Homo sapiens, UniProt P28335); assay: as §1, with “HTR2C” for “HTR6”
T1 sequence (P28335 whole entry): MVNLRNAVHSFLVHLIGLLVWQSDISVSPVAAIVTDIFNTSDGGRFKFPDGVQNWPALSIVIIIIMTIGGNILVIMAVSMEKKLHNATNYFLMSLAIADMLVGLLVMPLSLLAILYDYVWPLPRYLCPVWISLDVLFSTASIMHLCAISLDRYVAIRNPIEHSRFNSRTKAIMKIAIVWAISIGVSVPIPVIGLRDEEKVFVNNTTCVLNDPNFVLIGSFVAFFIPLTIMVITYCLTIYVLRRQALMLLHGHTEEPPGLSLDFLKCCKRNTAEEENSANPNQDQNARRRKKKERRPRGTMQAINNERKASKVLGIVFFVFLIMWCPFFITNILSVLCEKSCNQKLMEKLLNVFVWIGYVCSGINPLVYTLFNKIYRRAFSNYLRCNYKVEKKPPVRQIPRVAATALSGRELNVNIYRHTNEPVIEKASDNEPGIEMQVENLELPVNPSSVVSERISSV

[3] = biological target: Sigma intracellular receptor 2 (Homo sapiens, UniProt Q5BJF2); assay: as §1, with “TMEM97” for “HTR6”
Sigma intracellular receptor 2, sequence (Q5BJF2 whole entry): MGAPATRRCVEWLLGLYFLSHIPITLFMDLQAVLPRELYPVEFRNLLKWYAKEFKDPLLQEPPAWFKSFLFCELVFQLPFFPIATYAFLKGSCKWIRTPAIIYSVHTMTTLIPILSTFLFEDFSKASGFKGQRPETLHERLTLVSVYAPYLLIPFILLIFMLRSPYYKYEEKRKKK

[4] = biological target: Kappa-type opioid receptor (Homo sapiens, UniProt P41145); assay: as §1, with “OPRK1” for “HTR6”
Kappa-type opioid receptor, sequence (P41145 whole entry): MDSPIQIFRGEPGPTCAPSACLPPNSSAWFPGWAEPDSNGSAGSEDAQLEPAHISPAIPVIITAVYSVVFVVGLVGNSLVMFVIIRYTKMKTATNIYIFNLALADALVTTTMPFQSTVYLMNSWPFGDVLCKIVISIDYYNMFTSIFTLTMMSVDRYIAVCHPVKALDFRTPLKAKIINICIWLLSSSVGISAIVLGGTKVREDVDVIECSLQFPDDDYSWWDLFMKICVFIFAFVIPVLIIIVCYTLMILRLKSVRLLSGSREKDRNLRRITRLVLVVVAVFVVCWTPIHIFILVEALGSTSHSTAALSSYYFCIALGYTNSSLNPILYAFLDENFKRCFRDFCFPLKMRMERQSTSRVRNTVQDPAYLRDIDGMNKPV

[5] = biological target: Beta-3 adrenergic receptor (Homo sapiens, UniProt P13945); assay: as §1, with “ADRB3” for “HTR6”
Beta-3 adrenergic receptor, sequence (P13945 whole entry): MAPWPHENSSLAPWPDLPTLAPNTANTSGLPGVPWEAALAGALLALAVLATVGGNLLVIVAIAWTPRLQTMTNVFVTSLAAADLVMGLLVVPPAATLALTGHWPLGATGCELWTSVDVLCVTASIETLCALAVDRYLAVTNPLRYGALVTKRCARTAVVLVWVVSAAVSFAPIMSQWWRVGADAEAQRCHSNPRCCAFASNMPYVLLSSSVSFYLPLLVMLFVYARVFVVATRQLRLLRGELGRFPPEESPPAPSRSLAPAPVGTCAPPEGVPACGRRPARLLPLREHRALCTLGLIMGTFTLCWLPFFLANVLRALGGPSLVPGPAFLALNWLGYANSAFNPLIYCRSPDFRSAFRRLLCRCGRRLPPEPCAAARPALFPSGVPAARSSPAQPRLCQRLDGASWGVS

[6] = biological target: 5-hydroxytryptamine receptor 2B (Homo sapiens, UniProt P41595); assay: as §1, with “HTR2B” for “HTR6”
5-hydroxytryptamine receptor 2B, sequence (P41595 whole entry): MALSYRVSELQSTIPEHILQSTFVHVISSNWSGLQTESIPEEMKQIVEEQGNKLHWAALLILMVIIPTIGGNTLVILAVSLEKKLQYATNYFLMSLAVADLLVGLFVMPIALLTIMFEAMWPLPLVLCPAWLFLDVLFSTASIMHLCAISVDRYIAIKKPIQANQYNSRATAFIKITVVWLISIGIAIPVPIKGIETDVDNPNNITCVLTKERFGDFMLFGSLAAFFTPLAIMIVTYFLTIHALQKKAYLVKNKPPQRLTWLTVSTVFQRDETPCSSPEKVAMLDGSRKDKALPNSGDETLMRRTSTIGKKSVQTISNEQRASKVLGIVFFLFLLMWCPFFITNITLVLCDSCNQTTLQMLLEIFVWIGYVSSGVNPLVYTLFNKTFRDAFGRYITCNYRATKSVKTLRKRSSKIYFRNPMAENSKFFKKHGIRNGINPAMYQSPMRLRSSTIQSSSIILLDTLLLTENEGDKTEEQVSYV

[7] = biological target: Histamine H2 receptor (Homo sapiens, UniProt P25021); assay: as §1, with “HRH2” for “HTR6”
Histamine H2 receptor, sequence (P25021 whole entry): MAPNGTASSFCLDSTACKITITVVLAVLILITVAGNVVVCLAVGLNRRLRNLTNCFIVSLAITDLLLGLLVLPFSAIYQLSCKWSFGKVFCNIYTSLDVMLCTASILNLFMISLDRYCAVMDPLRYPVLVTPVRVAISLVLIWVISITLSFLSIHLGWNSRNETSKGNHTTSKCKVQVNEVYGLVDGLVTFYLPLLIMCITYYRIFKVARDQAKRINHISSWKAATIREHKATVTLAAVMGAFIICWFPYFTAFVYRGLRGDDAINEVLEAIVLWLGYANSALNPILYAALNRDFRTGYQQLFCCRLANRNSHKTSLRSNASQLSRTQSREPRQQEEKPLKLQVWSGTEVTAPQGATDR

[8] = biological target: Sigma non-opioid intracellular receptor 1 (Homo sapiens, UniProt Q99720); assay: as §1, with “SIGMAR1” for “HTR6”
Sigma non-opioid intracellular receptor 1, sequence (Q99720 whole entry): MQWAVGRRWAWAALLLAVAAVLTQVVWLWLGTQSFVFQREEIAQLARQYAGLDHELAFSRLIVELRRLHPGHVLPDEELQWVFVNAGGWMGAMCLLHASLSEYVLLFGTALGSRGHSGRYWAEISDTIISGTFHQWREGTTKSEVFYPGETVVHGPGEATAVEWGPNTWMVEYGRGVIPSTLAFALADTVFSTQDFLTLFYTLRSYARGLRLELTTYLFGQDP

[9] = biological target: 5-hydroxytryptamine receptor 2A (Homo sapiens, UniProt P28223); assay: as §1, with “HTR2A” for “HTR6”
5-hydroxytryptamine receptor 2A, sequence (P28223 whole entry): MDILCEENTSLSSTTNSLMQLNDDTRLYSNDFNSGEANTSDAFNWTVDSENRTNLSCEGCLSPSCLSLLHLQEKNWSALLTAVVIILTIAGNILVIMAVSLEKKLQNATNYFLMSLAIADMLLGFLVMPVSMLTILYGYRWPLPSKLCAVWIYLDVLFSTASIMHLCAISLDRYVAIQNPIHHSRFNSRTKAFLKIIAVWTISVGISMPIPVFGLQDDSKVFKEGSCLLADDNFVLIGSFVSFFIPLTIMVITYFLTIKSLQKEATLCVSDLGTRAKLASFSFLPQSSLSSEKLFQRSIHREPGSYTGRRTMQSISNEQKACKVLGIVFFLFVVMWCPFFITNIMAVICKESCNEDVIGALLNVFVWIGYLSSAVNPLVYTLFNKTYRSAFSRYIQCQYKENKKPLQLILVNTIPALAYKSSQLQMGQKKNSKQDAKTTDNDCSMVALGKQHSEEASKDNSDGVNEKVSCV

[10] = biological target: T2, 5-hydroxytryptamine receptor 1A (Homo sapiens, UniProt P08908); assay: as §1, with “HTR1A” for “HTR6”
T2 sequence (P08908 whole entry): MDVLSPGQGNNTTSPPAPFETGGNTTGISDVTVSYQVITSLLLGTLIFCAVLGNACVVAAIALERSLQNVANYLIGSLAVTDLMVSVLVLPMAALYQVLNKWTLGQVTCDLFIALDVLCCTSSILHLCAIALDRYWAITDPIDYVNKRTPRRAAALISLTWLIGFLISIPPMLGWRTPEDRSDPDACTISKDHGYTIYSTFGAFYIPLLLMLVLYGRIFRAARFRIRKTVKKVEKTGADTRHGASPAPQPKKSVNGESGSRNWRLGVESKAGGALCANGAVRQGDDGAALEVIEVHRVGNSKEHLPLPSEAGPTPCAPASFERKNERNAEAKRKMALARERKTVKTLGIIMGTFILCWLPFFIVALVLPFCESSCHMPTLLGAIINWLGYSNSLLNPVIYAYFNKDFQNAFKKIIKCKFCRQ

[11] = biological target: Histamine H1 receptor (Homo sapiens, UniProt P35367); assay: as §1, with “HRH1” for “HTR6”
[12] = biological target: T3, Alpha-2B adrenergic receptor (Homo sapiens, UniProt P18089); assay: as §1, with “ADRA2B” for “HTR6”
T3 sequence (P18089 whole entry): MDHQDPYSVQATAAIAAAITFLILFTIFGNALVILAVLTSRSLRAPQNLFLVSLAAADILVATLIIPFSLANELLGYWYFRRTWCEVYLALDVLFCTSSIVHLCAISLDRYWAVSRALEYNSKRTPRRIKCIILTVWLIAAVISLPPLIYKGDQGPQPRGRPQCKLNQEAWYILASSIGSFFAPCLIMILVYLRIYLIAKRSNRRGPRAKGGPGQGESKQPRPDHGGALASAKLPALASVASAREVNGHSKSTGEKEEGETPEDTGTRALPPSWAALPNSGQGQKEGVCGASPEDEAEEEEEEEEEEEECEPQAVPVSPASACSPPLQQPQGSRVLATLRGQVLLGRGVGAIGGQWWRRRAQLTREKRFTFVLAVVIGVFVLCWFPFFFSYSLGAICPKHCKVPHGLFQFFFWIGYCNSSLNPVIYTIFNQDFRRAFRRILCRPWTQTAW

[13] = biological target: 5-hydroxytryptamine receptor 5A (Homo sapiens, UniProt P47898); assay: as §1, with “HTR5A” for “HTR6”
5-hydroxytryptamine receptor 5A, sequence (P47898 whole entry): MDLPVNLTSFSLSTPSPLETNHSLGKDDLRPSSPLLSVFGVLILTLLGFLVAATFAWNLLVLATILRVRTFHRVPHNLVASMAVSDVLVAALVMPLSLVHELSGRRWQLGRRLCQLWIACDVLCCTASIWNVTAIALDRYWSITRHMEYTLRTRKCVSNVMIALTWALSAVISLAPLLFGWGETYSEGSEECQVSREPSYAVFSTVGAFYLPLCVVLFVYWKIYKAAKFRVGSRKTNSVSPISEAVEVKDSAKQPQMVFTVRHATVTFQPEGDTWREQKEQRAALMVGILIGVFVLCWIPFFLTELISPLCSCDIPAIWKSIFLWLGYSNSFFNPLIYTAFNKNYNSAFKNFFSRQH

[14] = biological target: Sodium-dependent noradrenaline transporter (Homo sapiens, UniProt P23975); assay: as §1, with “SLC6A2” for “HTR6”
Sodium-dependent noradrenaline transporter, sequence (P23975 whole entry): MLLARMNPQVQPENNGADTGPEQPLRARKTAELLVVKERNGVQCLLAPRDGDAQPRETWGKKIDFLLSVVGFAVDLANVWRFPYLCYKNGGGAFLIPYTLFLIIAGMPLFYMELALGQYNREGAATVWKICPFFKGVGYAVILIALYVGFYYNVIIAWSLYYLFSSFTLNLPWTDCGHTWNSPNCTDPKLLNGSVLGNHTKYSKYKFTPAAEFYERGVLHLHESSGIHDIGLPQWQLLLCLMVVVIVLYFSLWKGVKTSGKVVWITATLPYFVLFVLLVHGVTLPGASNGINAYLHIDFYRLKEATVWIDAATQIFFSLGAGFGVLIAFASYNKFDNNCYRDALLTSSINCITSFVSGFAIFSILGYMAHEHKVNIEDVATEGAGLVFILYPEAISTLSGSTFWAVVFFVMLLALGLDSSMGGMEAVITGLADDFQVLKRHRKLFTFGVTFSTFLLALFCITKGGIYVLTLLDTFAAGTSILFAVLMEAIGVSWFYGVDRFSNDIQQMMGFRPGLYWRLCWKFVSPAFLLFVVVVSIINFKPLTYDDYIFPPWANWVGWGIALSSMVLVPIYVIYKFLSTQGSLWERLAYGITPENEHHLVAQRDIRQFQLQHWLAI

[15] = biological target: D(3) dopamine receptor (Homo sapiens, UniProt P35462); assay: as §1, with “DRD3” for “HTR6”
D(3) dopamine receptor, sequence (P35462 whole entry): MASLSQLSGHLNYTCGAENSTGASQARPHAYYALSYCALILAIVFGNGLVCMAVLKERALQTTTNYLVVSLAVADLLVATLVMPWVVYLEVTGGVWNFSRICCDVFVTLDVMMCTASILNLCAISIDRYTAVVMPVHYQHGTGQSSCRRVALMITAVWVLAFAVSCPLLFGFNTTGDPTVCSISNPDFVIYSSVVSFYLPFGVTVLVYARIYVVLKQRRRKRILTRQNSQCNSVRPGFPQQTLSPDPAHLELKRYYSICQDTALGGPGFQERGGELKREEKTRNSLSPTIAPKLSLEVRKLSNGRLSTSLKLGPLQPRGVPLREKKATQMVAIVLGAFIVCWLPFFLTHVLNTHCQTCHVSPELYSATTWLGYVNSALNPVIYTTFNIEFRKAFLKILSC

[16] = biological target: T4, Alpha-2C adrenergic receptor (Homo sapiens, UniProt P18825); assay: as §1, with “ADRA2C” for “HTR6”
T4 sequence (P18825 whole entry): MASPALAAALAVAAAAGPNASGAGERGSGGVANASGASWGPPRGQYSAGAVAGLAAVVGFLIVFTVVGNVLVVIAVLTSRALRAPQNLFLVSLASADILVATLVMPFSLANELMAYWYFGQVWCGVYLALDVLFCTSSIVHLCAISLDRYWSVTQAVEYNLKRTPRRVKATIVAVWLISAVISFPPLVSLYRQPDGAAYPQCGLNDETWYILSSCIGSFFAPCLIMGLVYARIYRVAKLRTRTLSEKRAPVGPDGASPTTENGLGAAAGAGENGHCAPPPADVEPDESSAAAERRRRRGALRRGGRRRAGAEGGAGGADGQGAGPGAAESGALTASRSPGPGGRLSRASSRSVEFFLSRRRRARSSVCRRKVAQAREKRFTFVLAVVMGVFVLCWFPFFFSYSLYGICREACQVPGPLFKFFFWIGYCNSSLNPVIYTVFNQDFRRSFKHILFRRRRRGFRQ

[17] = biological target: Mu-type opioid receptor (Homo sapiens, UniProt P35372); assay: as §1, with “OPRM1” for “HTR6”
Mu-type opioid receptor, sequence (P35372 whole entry): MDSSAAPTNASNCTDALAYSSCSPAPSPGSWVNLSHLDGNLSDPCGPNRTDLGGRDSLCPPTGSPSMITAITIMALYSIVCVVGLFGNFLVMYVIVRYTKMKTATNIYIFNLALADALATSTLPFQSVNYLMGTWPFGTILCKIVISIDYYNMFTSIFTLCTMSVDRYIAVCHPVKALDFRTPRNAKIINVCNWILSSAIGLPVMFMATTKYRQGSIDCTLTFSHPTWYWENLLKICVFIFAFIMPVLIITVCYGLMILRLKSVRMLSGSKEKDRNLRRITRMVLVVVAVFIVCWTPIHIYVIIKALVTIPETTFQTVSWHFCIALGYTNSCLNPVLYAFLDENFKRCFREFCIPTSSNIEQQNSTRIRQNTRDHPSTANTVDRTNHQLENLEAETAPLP

[18] = biological target: 5-hydroxytryptamine receptor 1D (Homo sapiens, UniProt P28221); assay: as §1, with “HTR1D” for “HTR6”
[19] = biological target: T5, Alpha-1B adrenergic receptor (Homo sapiens, UniProt P35368); assay: as §1, with “ADRA1B” for “HTR6”
T5 sequence (P35368 whole entry): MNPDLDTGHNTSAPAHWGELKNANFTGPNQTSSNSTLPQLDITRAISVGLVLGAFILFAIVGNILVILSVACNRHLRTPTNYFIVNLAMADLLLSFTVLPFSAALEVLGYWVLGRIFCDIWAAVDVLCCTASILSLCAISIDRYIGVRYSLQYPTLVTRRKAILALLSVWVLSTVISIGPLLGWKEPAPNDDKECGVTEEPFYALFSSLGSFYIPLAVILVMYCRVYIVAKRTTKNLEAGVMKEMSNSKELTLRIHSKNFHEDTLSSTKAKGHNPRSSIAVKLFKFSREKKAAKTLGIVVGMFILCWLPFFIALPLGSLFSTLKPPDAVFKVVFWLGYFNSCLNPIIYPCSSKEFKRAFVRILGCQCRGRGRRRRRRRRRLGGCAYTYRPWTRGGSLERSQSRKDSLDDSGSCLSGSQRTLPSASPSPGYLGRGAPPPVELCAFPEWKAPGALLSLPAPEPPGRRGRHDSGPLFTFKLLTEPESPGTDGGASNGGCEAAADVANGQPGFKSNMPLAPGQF

[20] = biological target: 5-hydroxytryptamine receptor 7 (Homo sapiens, UniProt P34969); assay: as §1, with “HTR7” for “HTR6”

Compound | Ki [1] [nM] | Ki [2] [nM] | Ki [3] [nM] | Ki [4] [nM] | Ki [5] [nM] | Ki [6] [nM] | Ki [7] [nM] | Ki [8] [nM] | Ki [9] [nM] | Ki [10] [nM] | Ki [11] [nM] | Ki [12] [nM] | Ki [13] [nM] | Ki [14] [nM] | Ki [15] [nM] | Ki [16] [nM] | Ki [17] [nM] | Ki [18] [nM] | Ki [19] [nM] | Ki [20] [nM]
COc1cccc([C@@H](C)NCCCc2ccccc2Cl)c1 [TECALCET HYDROCHLORIDE] | 2320 | 162 | 74.6 | 1400 | > 10000 | 43 | 1400 | 41.5 | 181 | 1440 | 909 | 955 | 1090 | 1930 | 875 | 1580 | 2210 | – | – | –
C[C@@H](NCCCc1cccc(C(F)(F)F)c1)c1cccc2ccccc12 [CINACALCET HYDROCHLORIDE] | 1820 | 658 | 388 | 444 | – | 39.7 | 2620 | – | 842 | 1960 | – | – | 972 | 1450 | 391 | 1570 | 1300 | 1700 | 2890 | 571
